Assays:
[1] = tested on: green foxtail; experiment: Test C postemergence; format: in vivo, Setaria viridis; conditions: Postemergence, 1000 g ai/ha, 10 days, visual 0 to 100 scale (0 no effect, 100 complete control)
From the text: (§1) Seeds of plant species selected from barnyardgrass (Echinochloa crusgalli), blackgrass (Alopecurus myosuroides), corn (Zea mays), foxtail, giant (giant foxtail, Setaria faberi), green foxtail (Setaria viridis), goosegrass (Eleusine indica), kochia (Bassia scoparia), oat, wild (wild oat, Avena fatua), pigweed, palmer (palmer amaranth, palmer pigweed, Amaranthus palmeri), Pigweed, Redroot (redroot pigweed, Amaranthus retroflexus), ragweed (common ragweed, Ambrosia artemisiifolia), ryegrass, Italian ([…] ryegrass, Lolium multiflorum), soybean (Glycine max), and wheat (Triticum aestivum) were planted into a blend of loam soil and sand and treated preemergence with a directed soil spray using test chemicals formulated in a non-phytotoxic solvent mixture which included a surfactant. At the same time, plants selected from these crops and weed species and also galium (catchweed bedstraw, Galium aparine) and horseweed (Erigeron canadensis) were planted in pots containing the same blend of loam soil and sand and treated with postemergence applications of test chemicals formulated in the same manner. Plants ranged in height from 2 to 10 cm and were in the one- to two-leaf stage for the postemergence treatment. Treated plants and untreated controls were maintained in a greenhouse for 10 days, after which time all treated plants were compared to untreated controls and visually evaluated for injury. Plant response ratings, summarized in Table C, are based on a 0 to 100 scale where 0 is no effect and 100 is complete control. A dash (-) response means no test result.

[2] = tested on: ryegrass, Italian; experiment: Test C preemergence; format: in vivo, Lolium multiflorum; conditions: Preemergence, 1000 g ai/ha; visual rating after 10 days, 0 to 100 scale (0 no effect, 100 complete control)
From the text: as §1

[3] = tested on: ryegrass, Italian; experiment: Test C postemergence; format: in vivo, Lolium multiflorum; conditions: Postemergence, 1000 g ai/ha, 10 days, visual 0 to 100 scale (0 no effect, 100 complete control)
From the text: as §1

[4] = tested on: horseweed; experiment: Test C postemergence; format: in vivo, Erigeron canadensis; conditions: Postemergence, 1000 g ai/ha, 10 days, visual 0 to 100 scale (0 no effect, 100 complete control)
From the text: as §1

[5] = tested on: barnyardgrass; experiment: Test C preemergence; format: in vivo, Echinochloa crusgalli; conditions: Preemergence, 1000 g ai/ha; visual rating after 10 days, 0 to 100 scale (0 no effect, 100 complete control)
From the text: as §1

[6] = tested on: corn; experiment: Test C postemergence; format: in vivo, Zea mays; conditions: Postemergence, 1000 g ai/ha, 10 days, visual 0 to 100 scale (0 no effect, 100 complete control)
From the text: as §1

[7] = tested on: ragweed; experiment: Test C postemergence; format: in vivo, Ambrosia artemisiifolia; conditions: Postemergence, 1000 g ai/ha, 10 days, visual 0 to 100 scale (0 no effect, 100 complete control)
From the text: as §1

[8] = tested on: pigweed, palmer; experiment: Test C postemergence; format: in vivo, Amaranthus palmeri; conditions: Postemergence, 1000 g ai/ha, 10 days, visual 0 to 100 scale (0 no effect, 100 complete control)
From the text: as §1

[9] = tested on: pigweed, palmer; experiment: Test C preemergence; format: in vivo, Amaranthus palmeri; conditions: Preemergence, 1000 g ai/ha; visual rating after 10 days, 0 to 100 scale (0 no effect, 100 complete control)
From the text: as §1

[10] = tested on: galium; experiment: Test C postemergence; format: in vivo, Galium aparine; conditions: Postemergence, 1000 g ai/ha, 10 days, visual 0 to 100 scale (0 no effect, 100 complete control)
From the text: as §1

[11] = tested on: green foxtail; experiment: Test C preemergence; format: in vivo, Setaria viridis; conditions: Preemergence, 1000 g ai/ha; visual rating after 10 days, 0 to 100 scale (0 no effect, 100 complete control)
From the text: as §1

[12] = tested on: barnyardgrass; experiment: Test C postemergence; format: in vivo, Echinochloa crusgalli; conditions: Postemergence, 1000 g ai/ha
From the text: as §1

[13] = tested on: ragweed; experiment: Test C preemergence; format: in vivo, Ambrosia artemisiifolia; conditions: Preemergence, 1000 g ai/ha; visual rating after 10 days, 0 to 100 scale (0 no effect, 100 complete control)
From the text: as §1

[14] = tested on: corn; experiment: Test C preemergence; format: in vivo, Zea mays; conditions: Preemergence, 1000 g ai/ha; visual rating after 10 days, 0 to 100 scale (0 no effect, 100 complete control)
From the text: as §1

[15] = tested on: blackgrass; experiment: Test C postemergence; format: in vivo, Alopecurus myosuroides; conditions: Postemergence, 1000 g ai/ha, 10 days, visual 0 to 100 scale (0 no effect, 100 complete control)
From the text: as §1

[16] = tested on: kochia; experiment: Test C preemergence; format: in vivo, Bassia scoparia; conditions: Preemergence, 1000 g ai/ha; visual rating after 10 days, 0 to 100 scale (0 no effect, 100 complete control)
From the text: as §1

[17] = tested on: kochia; experiment: Test C postemergence; format: in vivo, Bassia scoparia; conditions: Postemergence, 1000 g ai/ha, 10 days, visual 0 to 100 scale (0 no effect, 100 complete control)
From the text: as §1

[18] = tested on: blackgrass; experiment: Test C preemergence; format: in vivo, Alopecurus myosuroides; conditions: Preemergence, 1000 g ai/ha; visual rating after 10 days, 0 to 100 scale (0 no effect, 100 complete control)
From the text: as §1

[19] = 10 days, visual 0 to 100 scale (0 no effect, 100 complete control)

SMILES | Plant response rating, Foxtail, Green [1] | Plant response rating, Ryegrass, Italian [2] | Plant response rating, Ryegrass, Italian [3] | Plant response rating, Horseweed [4] | Plant response rating, Barnyardgrass [5] | Plant response rating, Corn [6] | Plant response rating, Ragweed [7] | Plant response rating, Pigweed, Palmer [8] | Plant response rating, Pigweed, Palmer [9] | Plant response rating, Galium [10] | Plant response rating, Foxtail, Green [11] | Plant response rating, Barnyardgrass ([12]; 0 to 100 scale, 0 no effect, 100 complete control) | Plant response rating, Ragweed [13] | Plant response rating, Corn [14] | Plant response rating, Blackgrass [15] | Plant response rating, Kochia [16] | Plant response rating, Kochia [17] | Plant response rating, Blackgrass [18] | Plant response rating, Barnyardgrass [12, 19]
C[C@H]1CN(C(=O)c2cccc(-c3cnnn3C)c2)c2cccc(Cl)c2O1 [Compound 239] | 30 | 70 | 0 | 30 | 50 | 0 | 50 | 70 | 80 | 70 | 100 | 30 | 0 | 0 | 10 | 30 | 40 | 30 | 
CCOC(=O)c1cncn1-c1cccc(C(=O)N2C[C@H](C)Oc3c(C)cccc32)c1 [Compound 298] | 0 | 0 | 0 | 0 | 0 |  | 40 | 0 | 40 | 20 | 30 |  | 0 |  | 0 | 50 | 0 | 0 | 0
Cc1cccc2c1O[C@@H](C)CN2C(=O)c1cccc(-n2cnc(Cl)c2)c1 [Compound 304] | 20 | 90 | 0 | 0 | 60 |  | 0 | 20 | 70 | 70 | 100 |  | 0 |  | 30 | 10 | 40 | 70 | 10
Cc1cccc2c1O[C@@H](C)CN2C(=O)c1cccc(-n2cncc2C#N)c1 [Compound 309] | 10 | 70 | 10 | 30 | 0 |  | 30 | 70 | 70 | 70 | 90 |  | 0 |  | 0 | 10 | 40 | 20 | 10
C[C@H]1CN(C(=O)c2cccc(-c3ccc(Cl)nc3)c2)c2cccc(Cl)c2O1 [Compound 383] | 0 | 0 | 0 | 0 | 0 |  | 0 | 50 | 10 | 0 | 20 |  | 0 |  | 10 | 0 | 50 | 0 | 10
C[C@H]1CN(C(=O)c2cccc(-c3cncc(Cl)c3)c2)c2cccc(Cl)c2O1 [Compound 384] | 10 | 0 | 0 | 0 | 0 |  | 0 | 60 | 30 | 40 | 30 |  | 0 |  | 10 | 0 | 50 | 0 | 10
COc1ccc(-c2cccc(C(=O)N3C[C@H](C)Oc4c(Cl)cccc43)c2)cn1 [Compound 385] | 20 | 50 | 10 | 0 | 30 |  | 50 | 70 | 50 | 60 | 90 |  | 0 |  | 30 | 0 | 70 | 0 | 20
Cc1cc(-c2cccc(C(=O)N3C[C@H](C)Oc4c(Cl)cccc43)c2)sn1 [Compound 389] | 70 | 60 | 0 | 0 | 70 |  | 30 | 90 | 70 | 90 | 100 |  | 20 |  | 10 | 90 | 80 | 30 | 70
Cc1nsc(-c2cccc(C(=O)N3C[C@H](C)Oc4c(Cl)cccc43)c2)n1 [Compound 390] | 20 | 80 | 20 | 0 | 80 |  | 30 | 80 | 90 | 80 | 100 |  | 30 |  | 50 | 50 | 70 | 20 | 50

Reference: patent publication US20260262643A1, “HERBICIDAL BENZOXAZINES” (FMC CORPORATION, priority 2022, published 2026)
